For eleven compounds, TGI and GI50 results are on record in PubChem BioAssay (NCI).

Some test systems named below: A549 NSCLC; SN12C renal; SW-620 colon; COLO 205 colon; SF-295 CNS; M19-MEL melanoma; KM20L2 colon; HS 578T breast; HCC-2998 colon; T-47D breast.
Common to all, as to assay: DTP human tumour cell line panel, 48 h

Broadly, the TGI is the concentration at which net growth stops. What is called GI50 is the concentration at which growth is held to half of that of the control.

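All cell lines were grown in 96-well plates and treated with compound for 48 hours. GI50 = concentration required for 50% inhibition of growth. Definition used: TGI = concentration required for complete inhibition of growth.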

`CN(C)CCC(/C=C/c1ccccc1)=N\Nc1ccc(Cl)cc1Cl`: the TGI came to 30.5 µM in the test with A549 NSCLC; 23.2 µM in the test on SN12C renal; 27.9 µM with SW-620 colon; 28.1 µM in the test on COLO 205 colon; 30.2 µM in the test with SF-295 CNS; 29 µM with M19-MEL melanoma.
On to `O=C(NC1CCCC1=O)c1ccccc1` (centres undefined), for which the TGI in the test on A549 NSCLC, in the test with SN12C renal, in the test with SW-620 colon, with SF-295 CNS, in the test on M19-MEL melanoma and in the test on KM20L2 colon was above 100 µM in each case.
Consider `COc1ccc(OC)c(C2SCC(=O)N2NC(=O)C(O)c2ccccc2)c1` (centres undefined), for which the GI50 with A549 NSCLC, in the test with HS 578T breast, in the test on HCC-2998 colon, in the test on SN12C renal, in the test with T-47D breast and in the test on SW-620 colon was above 100 µM each time. The GI50 with COLO 205 colon and with SF-295 CNS was above 100 µM each time. Besides, the TGI with A549 NSCLC, in the test on HS 578T breast, in the test with HCC-2998 colon, in the test on SN12C renal, in the test with T-47D breast and in the test with SW-620 colon was above 100 µM in each case. For the same compound, the TGI with COLO 205 colon and with SF-295 CNS was above 100 µM each time.
On to `COc1ccc(OC)c(Cn2cc3c(c2)-c2oncc2CC3)c1`, for which the GI50 is 4.42 µM in the test with A549 NSCLC; 2.25 µM in the test on HS 578T breast; 4.72 µM with HCC-2998 colon; 5.97 µM in the test on SN12C renal; 7.1 µM in the test on T-47D breast; 2.87 µM in the test with SW-620 colon. Also, the GI50 in the test on COLO 205 colon was 3.56 µM; in the test on SF-295 CNS, 2.43 µM. Further, the TGI with A549 NSCLC is above 100 µM; with HS 578T breast it was 8.32 µM; with HCC-2998 colon, 38.1 µM; in the test on SN12C renal, above 100 µM; in the test on T-47D breast it was above 100 µM; in the test with SW-620 colon, above 100 µM. Also, the TGI with COLO 205 colon came to 13.6 µM; in the test on SF-295 CNS it was 11.1 µM.
As to `COc1ccc(-c2cc(=O)c3c(OC)c(OC)c(OC)c(OC)c3o2)cc1`, the TGI in the test on A549 NSCLC is above 100 µM; with HS 578T breast, above 100 µM; in the test on HCC-2998 colon it was above 100 µM; in the test with SN12C renal it was above 100 µM; with T-47D breast it was 59.5 µM; in the test on SW-620 colon, above 100 µM. Besides, the TGI in the test with COLO 205 colon and with SF-295 CNS was above 100 µM each time.
With `O=C1NC(=O)C(c2cccc(Cl)c2)=C1Nc1ccc(O)c(Cl)c1`, the GI50 in the test with A549 NSCLC was 9.88 µM; with HS 578T breast, 5.11 µM; in the test with HCC-2998 colon, 24.6 µM; with SN12C renal, 9.42 µM; with T-47D breast, 7.98 µM; in the test on SW-620 colon, 8.73 µM. For the same compound, the results for the GI50 in the test on COLO 205 colon and in the test with SF-295 CNS were above 20.1 µM and 11.6 µM, respectively. The concentration for total growth inhibition (TGI) with A549 NSCLC is above 25 µM; in the test with HS 578T breast it was 19.3 µM; in the test with HCC-2998 colon it was above 25 µM; with SN12C renal, above 25 µM; with T-47D breast it was above 23.1 µM; in the test with SW-620 colon, above 25 µM. For the same compound, the TGI with COLO 205 colon and in the test with SF-295 CNS was above 25 µM each time.
For the compound `CC(C)(C)CN1CCn2c(nc3c(N)nccc32)S1`, the GI50 in the test with A549 NSCLC is 8.09 µM; in the test with HS 578T breast, 33.6 µM; with HCC-2998 colon it was 13.7 µM; in the test on SN12C renal, 6.55 µM; in the test with T-47D breast, 13 µM; in the test on SW-620 colon it was 4.16 µM. The GI50 in the test with COLO 205 colon is 4.02 µM; in the test on SF-295 CNS it was 12 µM. For the same compound, the TGI in the test on A549 NSCLC was 44.4 µM; in the test on HS 578T breast it was above 100 µM; in the test on HCC-2998 colon, 34.8 µM; with SN12C renal, above 100 µM; with T-47D breast it was above 100 µM; in the test with SW-620 colon it was 30.1 µM. In addition, the TGI with COLO 205 colon was 16.3 µM; in the test on SF-295 CNS it was above 100 µM.
As for `CN1CCC(n2cnc(-c3ccc(F)cc3)c2-c2ccnc(N)n2)CC1`, the GI50 with A549 NSCLC was 7.47 µM; in the test with HS 578T breast it was 15.3 µM; with HCC-2998 colon, 8.98 µM; in the test on SN12C renal, 6.43 µM; in the test with T-47D breast, 16 µM; with SW-620 colon, 5.93 µM. For the same compound, the GI50 in the test on COLO 205 colon was 7.07 µM; in the test with SF-295 CNS, 9.36 µM. Besides, the TGI in the test on A549 NSCLC, in the test on HS 578T breast, in the test with HCC-2998 colon, with SN12C renal, in the test on T-47D breast and with SW-620 colon was above 25 µM in each case. Moreover, the TGI in the test on COLO 205 colon and with SF-295 CNS was above 25 µM in each case.
On to `CC(=O)c1c(C(F)(F)F)n([O-])c2ccc(C)cc2[n+]1=O`, for which the GI50 is 4.48 µM with A549 NSCLC; 3.43 µM in the test on HS 578T breast; 1.89 µM in the test on HCC-2998 colon; 1.5 µM with SN12C renal; 6.52 µM with T-47D breast; 3.54 µM in the test with SW-620 colon. In addition, the GI50 with COLO 205 colon was 3.35 µM; with SF-295 CNS, 5.71 µM. In addition, the TGI is 26.6 µM in the test with A549 NSCLC; above 58.5 µM with HS 578T breast; 8.53 µM in the test on HCC-2998 colon; 4.72 µM in the test on SN12C renal; above 67.1 µM in the test on T-47D breast; above 100 µM in the test with SW-620 colon. In addition, the figures for the TGI in the test on COLO 205 colon and in the test on SF-295 CNS were above 43.8 µM and above 44.2 µM, respectively.
With `COc1ccc(C(Cl)=C(c2ccc(OCCN(C)C)cc2)c2ccc(OCCN(C)C)cc2)cc1`, the TGI in the test on A549 NSCLC is 3.67 µM; with HCC-2998 colon, 7.35 µM; with SN12C renal it was 11.7 µM; in the test with SW-620 colon it was 2.75 µM; with COLO 205 colon it was 2.94 µM; with SF-295 CNS, 3.24 µM. Also, the TGI in the test on KM20L2 colon stood at 2.74 µM.
Consider `CC(C)=CCC/C(C)=C/CC/C(C)=C/CC/C=C(\C)CC/C=C(\C)CCC(=O)Nc1ccn(C2OC(CO)C(O)C2(F)F)c(=O)n1` (centres undefined), for which the GI50 was 0.344 µM in the test with A549 NSCLC; 10.3 µM with HS 578T breast; 0.9 µM in the test with HCC-2998 colon; 0.326 µM in the test on SN12C renal; 0.089 µM in the test with T-47D breast; 0.48 µM in the test with SW-620 colon. Moreover, the GI50 with COLO 205 colon is 0.0982 µM; with SF-295 CNS, 0.0329 µM. For the same compound, the TGI in the test with A549 NSCLC is 28.3 µM; in the test on HS 578T breast, 35.2 µM; with HCC-2998 colon, 23 µM; in the test on SN12C renal, 13.1 µM; with T-47D breast, 11.8 µM; in the test with SW-620 colon it was 21.4 µM. In addition, the TGI in the test with COLO 205 colon came out at 12.6 µM; with SF-295 CNS it was 0.154 µM.
